Structures are written as SMILES.

Assay [1] concerns the target T1, Wzb (Lacticaseibacillus rhamnosus, UniProt Q58Z13).
T1 construct: 6His-tagged fusion, pQE30 (pGL387, wzb ORF in SacI-KpnI), E. coli NM522, purified under urea and renatured on Ni-NTA, 27 kDa; tag not reported as cut; forward primer starts at codon 2 (Ile)
T1 sequence (Q58Z13 2-254): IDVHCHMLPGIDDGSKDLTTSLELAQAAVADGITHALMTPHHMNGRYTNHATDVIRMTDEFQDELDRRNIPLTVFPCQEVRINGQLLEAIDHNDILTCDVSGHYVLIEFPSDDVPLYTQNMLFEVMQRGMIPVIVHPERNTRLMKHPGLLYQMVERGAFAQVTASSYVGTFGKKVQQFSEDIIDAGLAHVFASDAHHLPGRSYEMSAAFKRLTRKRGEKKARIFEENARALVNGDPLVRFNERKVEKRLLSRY
The experiment in a line: pNPP hydrolysis, absorbance at […] nm. Conditions: 2.5 mM pNPP; MES-HEPES, 1% BSA; Cu2+ essential, Co2+ stimulates; optimum pH 7.3, 75 °C. Format: biochemical.

In assay [2] the target is T1, Wzb. Kind of assay: pNPP hydrolysis, absorbance at […] nm. It counts as biochemical. Conditions: inhibitor; increasing inhibition from 1 mM to 100 mM, no residual activity at 100 mM (data not shown); substrate pNPP.

For `O=[N+]([O-])c1ccc(OP(=O)(O)O)cc1` [p-nitrophenyl-phosphate], the “pNPP hydrolysis, absorbance at 405 nm” value at Wzb [1] is recorded as “The purified Wzb fusion protein was active on p-nitrophenyl-phosphate (pNPP)”.

Take `[O]=[V]([OH])([OH])[OH]` [sodium orthovanadate]: the inhibition entry at Wzb [2] was “Wzb activity on pNPP was inhibited by sodium orthovanadate (Na3VO4)”.

The values above are taken from PMC2364625, “Characterization and site-directed mutagenesis of Wzb, an O-phosphatase from Lactobacillus rhamnosus” (BMC Biochemistry, 2008).
